Data on 4 compounds can be found in US20230094843A1, “PHARMACEUTICAL COMBINATION FOR TREATING TUMORS AND APPLICATION THEREOF” (FUKANG (SHANGHAI) HEALTH TECHNOLOGY CO., LTD, priority 2019, published 2023).

Some results are limits rather than exact numbers.

The conditions of series [1]: cited from earlier work.
The next series relates to MDA-MB-436 tumor cells. Description: PBMC humanized MDA-MB-436 subcutaneous tumor grafting model, tumor growth inhibition. The class given is in vivo, Mus Musculus, NCG. As to conditions: for Tumor growth inhibition (%): PG-D24, TGI=(1-T/C)x100% from relative tumor volume, mefuparib HCl 40 mg/kg p.o., Tuoyi 10 mg/kg i.p.; for Tumor volume, Grouping (PG-D0): at grouping, start of treatment, mefuparib HCl 40 mg/kg p.o. qod, Tuoyi 10 mg/kg i.p. q4d; for Tumor volume, Administration (PG-D24): day 24 after grouping, mefuparib HCl 40 mg/kg p.o. qod x 13, Tuoyi 10 mg/kg i.p. q4d x 7. The method, then:
Species: Mus Musculus, NCG (NOD-Prkdc^em26Cd52II2rg^em26Cd22/N ju), female; weight: 18-22 g; quantity: 55; supplier: GemPharmatech.
MDA-MB-436 tumor cells (YK-CL-075) were purchased from ATCC. The tumor cells were cultured in the Leibovitz's L-15 medium containing inactivated 10% fetal bovine serum, 100 U/mL of penicillin and 100 μg/mL of streptomycin in a 37° C./5% CO2 incubator, and were passaged every 3 to 4 days when the cells were overgrown. The tumor cells in logarithmic phase were used for in vivo tumor grafting.
PBMCs (human peripheral blood mononuclear cells) were purchased from […] (Donor#: A0075).
MDA-MB-436 tumor cells were resuspended in a 1:1 (v:v) mixture of PBS and Matrigel at a concentration of 1×10^8 cells/mL, and were grafted subcutaneously at the right flank of mice at 100 μL/mouse. When the tumor grew to about 1000 mm^3, the tumors were aseptically removed and cut into small pieces having dimensions of about 2 mm×2 mm×2 mm, which were grafted subcutaneously at the right flank of experimental animals. After 2 weeks, PBMCs were resuspended in PBS and grafted into mice in an amount of 2×10^6 cells/mouse. The animals were divided into 4 groups of 10 and treated (the day was recorded as PG-D0) when the tumor grew to about 93 mm^3.
The long and short diameters of the tumor were measured twice every week using a vernier caliper for calculating the tumor volume, and the calculation formula was: volume=0.5×long diameter×[…].
The T/C value was calculated from the tumor volume, where T is the mean relative tumor volume (RTV) of each treatment group and C is the mean RTV of the control group. RTV is the ratio of tumor volume after the treatment to that before the treatment. Tumor growth inhibition (TGI, %)=(1−T/C)×100%.
Inter-group statistical analysis was performed on tumor volume using IBM SPSS Statistics 22.0 software and mixed linear model analysis. Inter-group statistical analysis was performed on tumor weight using One-Way ANOVA analysis, with p<0.05 indicating significant differences.

The next series is described as follows: Water solubility. Type of series: physicochemical. The note with it: times higher than that of olaparib.
Series [2] relates to human-derived CD45+ cells (hCD45 cells). Description: FACS assay of hCD45 in peripheral blood 3 weeks after PBMC grafting. The note with it: FIG. 4. The class given is in vivo, Mus Musculus, NCG. The method, then:
Three weeks after PBMC grafting, peripheral blood of the mice was collected, and the proportion of human-derived CD45^+ cells (hCD45 cells) therein was determined by flow cytometry (FACS). After the end of study, the tumors was removed, weighed and photographed.
(A flow cytometer gives signals particle by particle.)

The test system of series [3] is BRCA-mutant and HER2-negative advanced breast cancer. As to conditions: cited from earlier work.
[4] abbreviates: patients receiving olaparib monotherapy.

In the case of `CNCc1ccc(-c2cc3cc(F)cc(C(N)=O)c3o2)cc1.Cl` [Mefuparib hydrochloride, mefuparib hydrochloride], the water solubility in series [1] is listed as greater than 35 mg/mL. Further, the “Tumor growth inhibition (%)” value in the series with MDA-MB-436 tumor cells (hydrochloride) stood at 54%; with MDA-MB-436 tumor cells (listed as mefuparib hydrochloride, hydrochloride), 54%. Moreover, the “Tumor volume, Grouping (PG-D0)” value in the series on MDA-MB-436 tumor cells is listed as 93 ± 6 mm^3. The “Tumor volume, Administration (PG-D24)” value in the series on MDA-MB-436 tumor cells was 761 ± 130 mm^3. For the same compound, in the series “Water solubility”, the “water solubility relative to olaparib” value turned out to be 350 times. Besides, the “percentage median of hCD45 cells in peripheral blood compared with the control group” value in series [2] is “higher than that in the control group”.
Consider `O=C(c1cc(Cc2n[nH]c(=O)c3ccccc23)ccc1F)N1CCN(C(=O)C2CC2)CC1` [olaparib], for which, in series [3] (associated with olaparib), the “grade 3 adverse event: anemia” value is 12% and the “grade 3 adverse event: neutropenia” value is listed as 6%. In series [3] (setting [4]), the “median PFS” value is reported as 7.0 months and the response rate is 59.9%.
Turning to durvalumab, in series [3] (associated with durvalumab), the “grade 3 adverse event: pancreatitis” value is 6%.
As for “toripalimab [Tuoyi PD-1 monoclonal antibody injection]”, in the series with MDA-MB-436 tumor cells, the “Tumor growth inhibition (%)” value is on record as 29%; the “Tumor volume, Grouping (PG-D0)” value came to 94 ± 7 mm^3; the “Tumor volume, Administration (PG-D24)” value is recorded as 1256 ± 252 mm^3. For the same compound, the “percentage median of hCD45 cells in peripheral blood compared with the control group” value in series [2] was “higher than that in the control group”.
